Legend:
[1] = Plasma protein binding, equilibrium dialysis (human); type: in vitro ADME
Description: (§1) Preparation of 100 mM sodium phosphate and 150 mM NaCl buffer (PBS). A basic solution was prepared by dissolving 14.2 g/L Na2HPO4 and 8.77 g/L NaCl in deionized water and the solution could be stored at 4° C. for up to 7 days. An acidic solution was prepared by dissolving 12.0 g/L NaH2PO4 and 8.77 g/L NaCl in deionized water and the solution could be stored at 4° C. for up to 7 days. The basic solution was titrated with the acidic solution to pH 7.4 and store at 4° C. for up to 7 days. pH was checked on the day of experiment and was adjusted if outside specification of 7.4±0.1.
(§2) Thawing of the frozen plasma (stored at −80° C.). Frozen plasma was thawed immediately at room temperature. The plasma was centrifuged at 3,220 g for 10 minutes to remove clots and supernatant was collected into a fresh tube. The pH of the plasma was checked and recorded. Note: a). Only use plasma that has been thawed no more than twice since arrival. b). Only use plasma within the range of pH 7 to pH 8.
(§3) Preparation of working solutions. The working solutions of test compound and control compound ketoconazole were prepared in DMSO at the concentration of 200 μM. And then 3 μL of working solutions was removed to mix with 597 μL of rat plasma to achieve a final concentration of 1 μM (0.5% DMSO). Plasma samples were vortexed thoroughly.
(§4) Preparation of dialysis membranes. […]

[2] = Monkey pharmacokinetic study; type: in vivo, male Non-Naïve Cynomolgus Monkeys; conditions: PO 0.3 mg/kg
Description: (§5) The rat pharmacokinetics studies of exemplary compounds 03-3, 03-5, and 03-115 were conducted with male SD rats. These rats were typically about 6-8 weeks old, weighing 200 g to 300 g. Animals were fasted overnight and free access to food 4 hours after dosing. A required volume of vehicle was added to reach the target concentration of the test article and vehicle component to prepare for the dosing. The dosing vehicle was PEG400 or 30% PEG400 in saline for IV, or 0.5% methylcellulose in water for PO. For IV dosing, the animals were administered intravenously via tail vein. For PO dosing, the animals were administered via oral gavage. After dosing, blood sample was collected (˜0.2 mL per time point) through jugular vein or heart puncture. Blood of each sample was transferred into plastic micro centrifuge tubes containing EDTA-K2. Collection tubes with blood samples and anticoagulant were inverted several times for proper mixing of the tube contents and then placed on wet ice. The blood samples were centrifuged at 2000 g for 5 minutes at 4° C. to obtain plasma which was stored in a freezer at −75±15° C. prior to analysis. Samples were analyzed using LC-MS/MS. WinNonlin were used for pharmacokinetic calculations.
Monkey pharmacokinetics studies of exemplary compounds 03-3, 03-5, and 03-115 were conducted substantially similarly to the rat pharmacokinetic studies, instead using male Non-Naïve Cynomolgus Monkeys. Animals for PO studies were food fasted overnight prior to dosing and were fed approximately 2 hours after dosing. Animals for IV studies had free access to food and water. Blood samples were collected through venipuncture of peripheral veins except the dosing vein.

[3] = Rat CNS exposure (plasma, CSF, brain); type: in vivo, male SD rats; conditions: SC 1 mg/kg, 1.00 h
Description: as §5, with “These” for “The rat pharmacokinetics studies of exemplary compounds 03-3, 03-5, and 03-115 were conducted with male SD rats. These”
(§6) For CSF sampling, after anesthesia, the foramen magnum was exposed, and a syringe was used with a venoclysis needle to sample the CSF. The CSF samples were stored in polypropylene tubes, then stored in a freezer at −75±15° C. prior to analysis.
(§7) For brain sampling, the rats were fully exsanguinated by using a risen of carbon dioxide prior to brain collection. Brain samples were then collected at adopted time point, quick frozen and kept at −75±15° C. All brain samples were weighted and homogenated with PBS by brain weight (g) to PBS volume (mL) ratio 1:3 before analysis. The actual concentration is the detected value multiplied by the dilution factor.

[4] = Plasma protein binding, equilibrium dialysis (rat); type: in vitro ADME; conditions: 1 μM, 6 hours dialysis
Description: as §1, §2, §3, §4

[5] = Mouse CNS exposure (plasma, CSF, brain); type: in vivo, male C57BL/6J mice; conditions: SC 1 mg/kg, 60 min
Description: as §5, with “These” for “The rat pharmacokinetics studies of exemplary compounds 03-3, 03-5, and 03-115 were conducted with male SD rats. These”
as §6, §7
These mice were typically about 6-8 weeks old, weighing 20 g to 30 g. Animals were free access to food before dosing. Sample amount was ˜0.03 mL per time point and sample site was dorsal metatarsal or heart puncture.

Structure (SMILES): Cc1ncccc1[C@@H](O)CNC(C)(C)C [Compound 03-115]
- PPB (human), Percent of Unbound Fractions [1]: 100%
- AUCInf [2]: 261 ng·h/mL
- Cmax [2]: 67 ng/mL
- MRTInf_obs [2]: 3.46 h
- Tmax [2]: 1.17 h
- Concentration, Brain [3]: 142 ng/g
- Concentration, CSF [3]: 56.2 ng/mL
- Concentration, Plasma [3]: 149 ng/mL
- PPB (rat), Percent of Unbound Fractions [4]: 97%
- Concentration, Brain [5]: 280 ng/g
- Concentration, CSF [5]: 157 ng/mL
- Concentration, Plasma [5]: 270 ng/mL

Reference: patent US12448352B2, “Beta adrenergic agonist and methods of using the same” (Curasen Therapeutics, Inc., priority 2019, dated 2025)
